Laboratory results as given in patent publication US4425350A, “5,6,6a,7-Tetrahydro-4H-dibenz(de,g)-isoquinoline derivatives, and their use for treating central nervous system disorders” (Warner-Lambert Company, priority 1980, dated 1984).

Tests used:
rats = experiment: Behavioural test in rats, modified after Irwin; format: in vivo
From the text: 2. Behavioural test in rats, modified after Irwin, Psychopharmacologica. (Berl.); 13, pgs. 222-257 (1968).

[1] = Acute toxicity (LD50), intragastral administration, male mice; conditions: mouse, in vivo, po
[2] = Prolongation of evipan sodium narcosis; format: in vivo
From the text: 3. Prolongation of evipan sodium narcosis, Arch. Int. Pharmacodyn; 126, pgs. 219-227 (1960).

dogs = experiment: Alphalysis (alphalytic activity) in dogs; format: in vivo; conditions: for alphalytic activity: from 1 mg./kg. i.v.
Method: 4. Alphalysis, Medizinische Wochenschrift; 81, pg. 352 (1951).
The alphalytic activity of the compounds of Examples 8 and 9 was tested on dogs.

Structure (SMILES)	catatonia (rats; 150 mg./kg.)	lowering of the body temperature (rats; 150 mg./kg.)	ptosis (rats; 150 mg./kg.)	sedation (rats; 150 mg./kg.)	LD50 [1]	prolongation of the sleeping time in % ([2]; dosage 50 mg./kg.)	prolongation of the sleeping time in % ([2]; dosage 100 mg./kg.)	alphalytic activity (dogs)	alphalytic action after intraduodenal administration (dogs; intraduodenal)	catatonia (rats; 300 mg./kg.)	lowering of the body temperature (rats; 300 mg./kg.)	muscle tonus (rats; 300 mg./kg.)	ptosis (rats; 300 mg./kg.)	sedation (rats; 300 mg./kg.)	behaviour (change of symptoms versus 150 mg./kg.) (rats; 300 mg./kg., symptoms at 150 mg./kg.: sedation, catatonia, lowering of the body temperature)	muscle tonus (rats; 150 mg./kg.)
COc1cc2c(cc1OC)-c1c(OC)c(OC)cc3c1C(CNC3)C2 (racemic) [Example 7, (±)-5,6,6a,7-Tetrahydro-1,2,9,10-tetramethoxy-4H-dibenz(de,g)isoquinolin]	catatonia	lowering of the body temperature	ptosis	sedation	~600 mg/kg	147%	324%									
COc1cc2c(cc1OC)-c1c(OC)c(OC)cc3c1C(C2)CN(C)C3 (racemic) [Example 8, (±)-5,6,6a,7-Tetrahydro-1,2,9,10-tetramethoxy-5-methyl-4H-dibenz(de,g)isoquinoline]					800 mg/kg	64%		a distinct alphalytic activity is detectable	the action could also be confirmed after intraduodenal administration	catatonia	lowering	reduced muscle tonus	ptosis	sedation		
COc1cc2c3c(c1OC)CN(C)CC3Cc1cc3c(cc1-2)OCO3 (racemic) [Example 9, (±)-5,6,6a,7-tetrahydro-2,3-dimethoxy-9,10-methylenedioxy-5-methyl-4H-dibenz(de,g)isoquinoline]	catatonia	lowering		sedation	~1200 mg/kg	339%	417%	a distinct alphalytic activity is detectable							strengthening of the symptoms	
COc1cc2c(cc1OC)-c1cc(OC)c(OC)c3c1C(C2)CN(C)C3 (racemic) [Example 10, (±)-5,6,6a,7-Tetrahydro-2,3,9,10-tetramethoxy-5-methyl-4H-dibenz(de,g)isoquinoline]	catatonia			sedation	~1200 mg/kg	268%	347%									reduced muscle tonus
